Where two headings read alike, the source gives them in different places.
Key:
[1] = system: Cladosporium herbarum mixed with Trichoderma viride; assay: Fungal efficacy on dry paint film (Modified ASTM 5590), pool TV + Ch; format: cell-based
Description: (§1) A single biocide or blend of biocides was post added into white acrylic latex paint free of biocides to give a maximum total active ingredient/s concentration tested. This paint was then diluted with a biocide free acrylic latex paint to give targeted concentrations for the testing. Depending on the type of biocide blends tested, the total biocides concentrations varies from 400 to 3300 ppm. After biocides addition or dilution, each sample was hand mixed for at least a minute until uniformity was achieved. Each of the paint samples as well as a control sample (containing no biocide) were used to prepare films on black plastic-vinyl chloride/acetate copolymer panels (Leneta Company, Mahwah, N.J.) using a 0.0762 mm (3 mil) bird bar applicator. The panels were thoroughly dried for at least 2 days avoiding direct exposure to sunlight. Square discs (0.5 inch^2; 1.27 cm^2) were cut out from each panel and were used as the substrate for fungal and algal efficacy tests. This sample size allowed for an agar border when the sample disc was placed into the well of the test plate. Each sample was tested in duplicate.
(§2) The appropriate media (BOLD'S 3N for Chlorophytes, BG-11 for Cyanobacteria, and PDA for fungi) were used to support microbial growth. The test plates were maintained at room temp (25° C.-26° C.), in a cycled light-dark environment, for four weeks for algae. Plates for fungal challenge tests were maintained at 30° C. for four weeks. At the end of the incubation period the samples were scored for percent area covered by visible microbial growth.
(§3) Fungal efficacy was tested as follows (Modified ASTM 5590).
ASTM 5590 is a standard accelerated test method for determining resistance of various coatings (including paints) to fungal defacement. To accommodate for high-throughput screening, this method was scaled down from petri plates to 6-well plates. […] The total percent area covered was evaluated and recorded at the end of each week and recorded in increments of 5%.
(§4) The SI is calculated based on F. C. […]

[2] = system: Alternaria alternata mixed with Aureobasidium pullulans; assay: Fungal efficacy on dry paint film (Modified ASTM 5590), pool Aa + Ap; format: cell-based
Description: as §1, §2, §3
ASTM 5590 is a standard accelerated test method for determining resistance of various coatings (including paints) to fungal defacement. To accommodate for high-throughput screening, this method was scaled down from petri plates to 6-well plates. To set up the test, an agar plug was placed at the bottom of each well of the sterile 6-well plate. A single coupon was placed with a pair of sterile forceps at the center of the agar plug (on top) with the painted surface facing upwards. Fungal inoculums were prepared by mixing equal concentrations (approximately 1×10^6 cfu/ml) and equal volumes (depending on number of samples to be tested) of like growing organisms. For this synergy study, three pools of mixed fungi were prepared as the test inoculum. Cladosporium herbarum was mixed with Trichoderma viride, Aspergillus niger was mixed with Penicillium funiculosum and Alternaria alternata was mixed with Aureobasidium pullulans. […] The total percent area covered was evaluated and recorded at the end of each week and recorded in increments of 5%.
as §4

[3] = system: Aspergillus niger mixed with Penicillium funiculosum; assay: Fungal efficacy on dry paint film (Modified ASTM 5590), pool An + Pf; format: cell-based; details: for % Inhibition, An + Pf: dry film, four weeks
Description: as §1, §2, §3
ASTM 5590 is a standard accelerated test method for determining resistance of various coatings (including paints) to fungal defacement. To accommodate for high-throughput screening, this method was scaled down from petri plates to 6-well plates. To set up the test, an agar plug was placed at the bottom of each well of the sterile 6-well plate. A single coupon was placed with a pair of sterile forceps at the center of the agar plug (on top) with the painted surface facing upwards. Fungal inoculums were prepared by mixing equal concentrations (approximately 1×10^6 cfu/ml) and equal volumes (depending on number of samples to be tested) of like growing organisms. For this synergy study, three pools of mixed fungi were prepared as the test inoculum. Cladosporium herbarum was mixed with Trichoderma viride, Aspergillus niger was mixed with Penicillium funiculosum and Alternaria alternata was mixed with Aureobasidium pullulans. Each well was inoculated with 400 microliter of organism mixture (approximately 1×10^6 cfu/ml) making sure that the whole surface (paint film as well as the agar surrounding it) was evenly covered. The plates were incubated at 30° C. in presence of moisture, for a period of four weeks. The total percent area covered was evaluated and recorded at the end of each week and recorded in increments of 5%.
(§5) The SI is calculated based on F. C. Kull et.
(§6) SI value of <1 in the formula indicates a synergism of the blended biocides exists.
(§7) NE=no end point at the concentration tested that will meet the percent inhibition criteria set in each SI calculation.

[4] = system: Gloeocapsa sp. and Oscillatoria sp.; assay: Algal efficacy on dry paint film (Modified ASTM 5589), pool Gs + Os; format: cell-based
Description: as §1, §2
Algal efficacy was tested as follows (Modified ASTM 5589).
ASTM 5589 is a standard accelerated test method for determining resistance of various coatings (including paints) to algal defacement. To accommodate for high-throughput screening, this method was scaled down from petri plates to 6-well plates. A single coupon was placed with a pair of sterile forceps at the center of the agar plug (on top) with the painted surface facing upwards. Algal inoculums were prepared by mixing equal concentrations (approximately 1×10^6 cfu/ml) and equal volumes (depending on number of samples to be inoculated) of like growing organisms.
In this synergy study, three pool of mixed algae were prepared as the test inoculum, Gloeocapsa sp. and Oscillatoria sp. a mix of cyanobacteria grown on BG-11 media; Chlorella sp., Chlorella kessleri, and Nostoc commune are unicellular chlorphytes that were mixed and grown on Bold media; Trentepohlia aurea, Tretepohlia odorata, and Calotrix parientina are filamentous algae that were mixed and grown on Bold media.
Each well that contained a tested coupon was inoculated with 400 μl of organism mixture (approximately 1×10^6 cfu/ml) making sure that the whole surface (paint film as well as the agar surrounding it) was evenly covered. The plates were incubated at room temp (25° C.-26° C.) with cyclic exposure to light (OTT-Lite model # OTL4012P, 40 Watt, 26 KLumen) and dark phases, for a period of four weeks. The total area covered was evaluated at the end of each week according to percent area covered in 5% increments.
as §5, §6, §7

[5] = system: green algae (Selenastrum capricornutum); details: cited from earlier work
[6] = Conc. 750 ppm in paint, dry film, four weeks
[7] = Conc. 2500 ppm in paint, dry film, four weeks
[8] = Conc. 1500 ppm in paint, dry film, four weeks
[9] = Total conc 2500 ppm (synergy table)
[10] = Total conc 1500 ppm (synergy table)
[11] = Total conc 750 ppm (synergy table)

Row | Compound | % Inhibition, TV + Ch [1, 6] | % Inhibition, TV + Ch [1, 7] | % inhibition, Aa + Ap [2, 8] | % inhibition, Aa + Ap [2, 7] | % inhibition, Aa + Ap [2, 9] | % Inhibition, An + Pf ([3]; Conc. 750 ppm in paint) | % Inhibition, An + Pf ([3]; Conc. 1500 ppm in paint) | % Inhibition, An + Pf ([3]; Conc. 2500 ppm in paint) | % inhibition, AnPf [3, 9] | % Inhibition, Gs + Os [4, 6] | % Inhibition, Gs + Os [4, 8] | % Inhibition, Gs + Os [4, 7] | % Inhibition, Gs + Os [4, 10] | EbC50 (median effective concentration for biomass) ([5]; 72 hr) | ErC50 (median effective concentration for growth rate) ([5]; 72 hr) | EbC50 (median effective concentration for biomass) ([5]; 7 day) | % Inhibition, TV + Ch [1, 10] | % inhibition, Aa + Ap [2, 11] | % inhibition, AnPf [3, 11]
1 | Zinc Glyphosate | 50% | 90% | 47.5% | 70% | 70% | 20% | 27.5% | 30% | 30% | 15% | 72.5% | 90% | 72.5% | – | – | – | – | – | –
2 | O=C(O)CNCP(=O)(O)O [Glyphosate, N-(phosphonomethyl)glycine] | – | – | – | – | – | – | – | – | – | – | – | – | – | 485 mg/L | 460 mg/L | 13.8 mg/L | – | – | –
3 | CCCCNC(=O)OCC#CI [IPBC, 3-iodo-2-propynyl-butylcarbamate, reference compound] | – | – | – | – | – | – | – | – | – | – | – | – | 82.5% | – | – | – | 75% | 90% | 65%

Source: patent US8524636B2 (Dow Global Technologies LLC, priority 2010, dated 2013)
